These results are taken from patent publication US5019492A, “Photographic element and process comprising a blocked photographically useful compound” (Eastman Kodak Company, priority 1989, dated 1991).

A short description of data set [1]: Unblocking of shifted masking coupler in fixed unexposed strips (density at 520 nm). To be noted: blocked compound. The method, then: Each compound was dispersed in an equal weight of 2,4-di-t-pentylphenol and coated in the following format on a poly(ethylene terephthalate) film support (unless otherwise specified, component amounts are given in mg/m^2 with silver halide counted as silver):
OVERCOAT Gelatin (2691); bis(vinylsulfonyl-
LAYER: methyl) ether hardener (1.75% of
EMULSION Gelatin (3767); unsensitized AgBr
LAYER: emulsion (906); masking coupler
Unexposed strips of this coated element were soaked 1 minute in a fixing solution to remove silver halide, washed, and then immersed in one of the following processing solutions at temperatures conventionally used for processing in a KODAK C-41 process:
P-1: pH 10 carbonate buffer
P-2: pH 10 carbonate buffer with 0.024M hydroxylamine sulfate
P-3: C-41 color developer with hydroxylamine sulfate omitted
P-4: C-41 color developer solution containing hydroxylamine sulfate

Data set [2] can be described thus: Deblocking of blocked filter dyes in C-41 developer with or without hydroxylamine sulfate at 38° C. The following applies: unblocked dye. The procedure: FILTER DYE Gelatin (4844); blocked filter dye
bis(vinylsulfonylmethyl) ether
Strips of each coating were soaked at 38° C. in C-41 developer or in the same C-41 developer formulation from which hydroxylamine sulfate (HAS) had been omitted. The rate of deblocking of each filter dye was followed by measuring the density at the absorption maximum of the unblocked dye at selected time intervals.

Data set [3] in a line: Model deblocking (hydrolysis) half-lives of esters with mononucleophile (A+B) or dinucleophile hydroxylamine (A+C), pH 10, 25° C. The class given is physicochemical. The following applies: for rate enhancement due to dinucleophile (hydroxylamine) participation, compared with comparison esters E-4 and E-5: pH 10.0, 25° C.; for Ratio (A+B half-life to A+C half-life): rate enhancement due to hydroxylamine. The method, then: Model studies were conducted on esters E-1 through E-5 to determine the possible rate enhancement which could be attained by using a dinucleophile rather than a mononucleophile to promote the removal from a phenolic moiety of a blocking group of this invention. Aqueous solutions A, B, and C, each containing 50% by volume of acetonitrile were prepared as follows (a separate solution A for each ester):
Solution A: 2.5 × 10^-4 M ester (or 2.5 × 10^-5 M
Solution B: 25% by volume carbonate buffer
(ionic strength 0.75); 0.05 N KCl
Solution C: Solution B with added 0.05 M
Then equal volumes of A and B (or A and C) were mixed at 25° C. to give a pH 10.0 solution and the reaction was followed by spectrophotometric measurements of the phenol (272 nm) or p-nitrophenol (402 nm) produced with time. In each case a reaction half-life (t1/2) was calculated from the equation t1/2 =1n(2)/k, where 1n(2) is the natural logarithm of 2 and k is the pseudo first-order rate constant calculated for the reaction. Smaller half-lives thus indicate more rapid reactions. The A+B combination provides an alkaline solution in which the main reactant is hydroxide ion (a mononucleophile) while in the A+C combination the active reactant is hydroxylamine (a dinucleophile). A ratio of the A+B half-life to the A+C half-life provides a measure of rate enhancement due to participation of hydroxylamine in the deblocking reaction.

For the compound `CCC(C)(C)c1ccc(OCCCCNC(=O)c2cc(Oc3ccc(N=Nc4cc(OC(C)C(=O)O)c5ccccc5c4OC(=O)C4(C)CCCCC4=O)cc3)c3ccccc3c2O)c(C(C)(C)CC)c1` (stereo not drawn) [Compound 3], the “absorption maximum (blocked)” value in data set [1] is listed as “about 375 nm”.

Regarding `CCCCCCCCCCCCOC(=O)c1ccc(N=Nc2ccc(N(CC)C(=O)OCc3ccc(OC(=O)C4(C)CCCCC4=O)c(NS(C)(=O)=O)c3)c(OC)c2)cc1` (stereo not drawn) [Compound 4], the “λmax (Unblocked)” value in data set [2] is given as 440 nm.

With `CCCCCCCCCCCCOC(=O)c1ccc(N=Nc2ccc(N(CC)C(=O)OCc3ccc(OC(=O)C4(C)CCCCC4=O)c(Cl)c3)c(OC)c2)cc1` (stereo not drawn) [Compound 5], the “λmax (Unblocked)” value in data set [2] worked out at 440 nm.

Take `CCCCCCCCCCCCN(C(=O)OCc1ccc(OC(=O)C2(C)CCCCC2=O)c(NS(C)(=O)=O)c1)c1ccc(N=Nc2ccc([N+](=O)[O-])cc2C(=O)OC)cc1OC` (stereo not drawn) [Compound 6]: the “λmax (Unblocked)” value in data set [2] was 495 nm.

For the compound `CC(=O)C(C)(C)C(=O)Oc1ccc([N+](=O)[O-])cc1` [Compound E-1], in data set [3], the “rate enhancement due to dinucleophile (hydroxylamine) participation, compared with comparison esters E-4 and E-5” value is “twenty to seventy thousand times greater”; the “Ratio (A+B half-life to A+C half-life)” value was 36 × 10^3.

Turning to `CC(=O)C(C)(C)C(=O)Oc1ccccc1` [Compound E-2], in data set [3], the “rate enhancement due to dinucleophile (hydroxylamine) participation, compared with comparison esters E-4 and E-5” value is “twenty to seventy thousand times greater”; the “Ratio (A+B half-life to A+C half-life)” value is 93 × 10^3.

With `CC1(C(=O)Oc2ccccc2)CCCCC1=O` (stereo not drawn) [Compound E-3], in data set [3], the “rate enhancement due to dinucleophile (hydroxylamine) participation, compared with comparison esters E-4 and E-5” value was “twenty to seventy thousand times greater”; the “Ratio (A+B half-life to A+C half-life)” value is recorded as 3.2 × 10^6.

For the compound `CC(=O)CCC(=O)Oc1ccccc1` [Compound E-4, reference compound], in data set [3], the “Ratio (A+B half-life to A+C half-life)” value came to 47.

As for `CC(=O)CC(C)(C)C(=O)Oc1ccccc1` [Compound E-5, reference compound], the “Ratio (A+B half-life to A+C half-life)” value in data set [3] is recorded as 166.
